The values below come from ChEMBL document CHEMBL1150927, “Antineoplastic agents. 398. Isolation and structure elucidation of cephalostatins 18 and 19” (1998).

Holding throughout (format): functional
The subject of assay [1] is P388. In words: Cytotoxicity against mouse P388 cells. The note with it: read-out: ED50 (the source's name).
For assay [2], the system named is OVCAR-3. Description: Growth inhibition of human OVCAR-3 cells.
For assay [3], the system named is SF-295. In words: Growth inhibition of human SF295 cells.
For assay [4], the system named is A498. In words: Growth inhibition of human A498 cells.
Assay [5] deals with NCI-H460. In words: Growth inhibition of human NCI-H460 cells.
In assay [6] the test system is KM-20L2. Description: Growth inhibition of human KM20L2 cells.
Assay [7] has as its system SK-MEL-5. In words: Growth inhibition of human SK-MEL-5 cells.
A short description of assay [8]: Growth inhibition of human NCI60 cells.

In brackets after ≈: the same amount, converted by molar mass.

As usually defined, the GI50 is the concentration that inhibits growth by half.

For the compound `CO[C@H]1c2nc3c(nc2C[C@@H]2CC[C@H]4C5=CC[C@@H]6[C@H](C)[C@@]7(OC[C@]56C(=O)C[C@@H]4[C@]21C)OC(C)(C)C[C@H]7O)C[C@@]1(C)[C@@H](CC[C@H]2C4=C[C@@H]5O[C@]6(O[C@](C)(CO)C[C@H]6O)[C@@H](C)[C@]5(O)[C@@]4(C)[C@H](O)C[C@@H]21)C3` [CEPHALOSTATIN 19], the EC50 in assay [1] was determined as 7.4 ng/mL (≈ 7.86 nM). The GI50 in assay [2], in assay [3], in assay [4], in assay [5], in assay [6] and in assay [7] was under 1 ng/mL each time. Moreover, the GI50 in assay [8] stood at 0.0166 µM.
Turning to `CO[C@H]1c2nc3c(nc2C[C@@H]2CC[C@H]4C5=C[C@@H]6O[C@]7(O[C@](C)(CO)C[C@H]7O)[C@@H](C)[C@]6(O)[C@@]5(C)[C@H](O)C[C@@H]4[C@]21C)C[C@@]1(C)[C@@H](CC[C@H]2C4=CC[C@@H]5[C@H](C)[C@@]6(OC[C@]45C(=O)C[C@@H]21)OC(C)(C)C[C@H]6O)C3` [CEPHALOSTATIN 18], the EC50 in assay [1] stood at 4.3 ng/mL (≈ 4.57 nM). The GI50 in assay [2], in assay [3], in assay [4], in assay [5], in assay [6] and in assay [7] was under 1 ng/mL throughout. Also, the GI50 in assay [8] turned out to be 0.0217 µM.
Regarding `C[C@@H]1[C@]2(O[C@H]3C=C4[C@@H]5CC[C@H]6Cc7nc8c(nc7C[C@]6(C)[C@H]5C[C@@H](O)[C@]4(C)[C@]31O)C[C@@H]1CC[C@H]3C4=CC[C@@H]5[C@H](C)[C@@]6(OC[C@]45C(=O)C[C@@H]3[C@@]1(C)C8)OC(C)(C)C[C@H]6O)O[C@](C)(CO)C[C@H]2O` [CEPHALOSTATIN 1], growth in assay [8] was halved (GI50) at 0.0022 µM.
